ChEMBL document CHEMBL4393682, “Development of M10, myricetin-3-O-β-d-lactose sodium salt, a derivative of myricetin as a potent agent of anti-chronic colonic inflammation” (Eur J Med Chem, 2019)
≈ marks a conversion by molar mass, not a printed value. Calls of active or inactive are those of the source. The calls are words filed in the database; no cut-off is given here.

Columns and labels:
[1] = tested on: Mus musculus; assay: Anti-inflammatory activity against DSS-induced ulcerative colitis C57BL/6 mouse model assessed as colon length at 100 mg/kg, ig administered for 7 consecutive days followed by 7 days treatment with drinking water followed by three additional DSS treatment cycles (reference value: 5.93 +/- 0.52 cm); format: functional
[2] = Aqueous solubility of compound after 24 hrs by HPLC analysis; format: physicochemical; conditions: for solubility: buffer, 24 h; for solubility at 24 h: aqueous
[3] = tested on: Mus musculus; assay: Anti-inflammatory activity against DSS-induced ulcerative colitis C57BL/6 mouse model assessed as increase in colon length administered via gavage once a day for 14 consecutive days starting from second day post DSS challenge; format: functional, organism-based
[4] = Ratio of compound t1/2 to myricetin t1/2 in Wistar rat plasma at 3 uM measured up to 180 mins by LC-MS/MS analysis; format: ADME, cell-free; conditions: 3 h
[5] = Elimination rate constant in Wistar rat plasma at 3 uM measured up to 180 mins by LC-MS/MS analysis; format: ADME, cell-free
[6] = Half life in Wistar rat plasma at 3 uM measured up to 180 mins by LC-MS/MS analysis; format: ADME, cell-free
[7] = Elimination rate constant in Wistar rat liver microsomes at 1 uM measured up to 120 mins by LC-MS/MS analysis; format: ADME, Microsome
[8] = Half life in Wistar rat liver microsomes at 1 uM measured up to 120 mins by LC-MS/MS analysis; format: ADME, Microsome; conditions: 2 h
[9] = tested on: Mus musculus; assay: Anti-inflammatory activity against DSS-induced ulcerative colitis C57BL/6 mouse model assessed as colon length at 50 mg/kg, ig administered via gavage once a day for 14 consecutive days starting from second day post DSS challenge (reference value: 5.93 to 7.1 cm); format: functional
[10] = tested on: Mus musculus; assay: Anti-inflammatory activity against DSS-induced ulcerative colitis C57BL/6 mouse model assessed as mild cellular infiltration in colon at 50 mg/kg, ig administered via gavage once a day for 14 consecutive days starting from second day post DSS challenge by H and E staining based analysis; format: functional, organism-based
[11] = tested on: Mus musculus; assay: Anti-inflammatory activity against DSS-induced ulcerative colitis C57BL/6 mouse model assessed as decrease in inflammatory score at 50 mg/kg, ig administered via gavage once a day for 14 consecutive days starting from second day post DSS challenge; format: functional, organism-based
[12] = Toxicity in po dosed mouse; format: organism-based; conditions: in vivo
[13] = Metabolic stability in Wistar rat plasma assessed as compound remaining at 3 uM after 5 mins by LC-MS/MS analysis relative to control; format: ADME, cell-free; conditions: read-out: Stability
[14] = Metabolic stability in Wistar rat plasma assessed as compound remaining at 3 uM after 10 mins by LC-MS/MS analysis relative to control; format: ADME, cell-free; conditions: read-out: Stability
[15] = Metabolic stability in Wistar rat plasma assessed as compound remaining at 3 uM after 20 mins by LC-MS/MS analysis relative to control; format: ADME, cell-free; conditions: read-out: Stability
[16] = Metabolic stability in Wistar rat plasma assessed as compound remaining at 3 uM after 40 mins by LC-MS/MS analysis relative to control; format: ADME, cell-free; conditions: read-out: Stability
[17] = Metabolic stability in Wistar rat plasma assessed as compound remaining at 3 uM after 60 mins by LC-MS/MS analysis relative to control; format: ADME, cell-free; conditions: read-out: Stability
[18] = Metabolic stability in Wistar rat plasma assessed as compound remaining at 3 uM after 90 mins by LC-MS/MS analysis relative to control; format: ADME, cell-free; conditions: read-out: Stability
[19] = Metabolic stability in Wistar rat plasma assessed as compound remaining at 3 uM after 120 mins by LC-MS/MS analysis relative to control; format: ADME, cell-free; conditions: read-out: Stability
[20] = Metabolic stability in Wistar rat plasma assessed as compound remaining at 3 uM after 180 mins by LC-MS/MS analysis relative to control; format: ADME, cell-free; conditions: read-out: Stability
[21] = Metabolic stability in Wistar rat liver microsomes assessed as compound remaining at 1 uM after 5 mins by LC-MS/MS analysis relative to control; format: ADME, Microsome; conditions: read-out: Stability
[22] = Metabolic stability in Wistar rat liver microsomes assessed as compound remaining at 1 uM after 10 mins by LC-MS/MS analysis relative to control; format: ADME, Microsome; conditions: read-out: Stability
[23] = Metabolic stability in Wistar rat liver microsomes assessed as compound remaining at 1 uM after 20 mins by LC-MS/MS analysis relative to control; format: ADME, Microsome; conditions: read-out: Stability
[24] = Metabolic stability in Wistar rat liver microsomes assessed as compound remaining at 1 uM after 30 mins by LC-MS/MS analysis relative to control; format: ADME, Microsome; conditions: read-out: Stability
[25] = Metabolic stability in Wistar rat liver microsomes assessed as compound remaining at 1 uM after 40 mins by LC-MS/MS analysis relative to control; format: ADME, Microsome; conditions: read-out: Stability
[26] = Metabolic stability in Wistar rat liver microsomes assessed as compound remaining at 1 uM after 60 mins by LC-MS/MS analysis relative to control; format: ADME, Microsome; conditions: read-out: Stability
[27] = Metabolic stability in Wistar rat liver microsomes assessed as compound remaining at 1 uM after 90 mins by LC-MS/MS analysis relative to control; format: ADME, Microsome; conditions: read-out: Stability
[28] = Metabolic stability in Wistar rat liver microsomes assessed as compound remaining at 1 uM after 120 mins by LC-MS/MS analysis relative to control; format: ADME, Microsome; conditions: read-out: Stability
[29] = Ratio of compound t1/2 to myricetin t1/2 in Wistar rat liver microsomes at 1 uM measured up to 120 mins by LC-MS/MS analysis; format: ADME, Microsome; conditions: 2 h
[30] = Ratio of compound solubility to myricetin solubility in water after 24 hrs by HPLC analysis; format: physicochemical; conditions: buffer
[31] = tested on: Mus musculus; assay: Anti-inflammatory activity against DSS-induced ulcerative colitis C57BL/6 mouse model assessed as colon length at 100 mg/kg, ig administered via gavage once a day for 14 consecutive days starting from second day post DSS challenge (reference value: 5.93 +/- 0.52 cm); format: functional

With `Nc1ccc(O)c(C(=O)O)c1` [MESALAMINE] the Activity [1] was 7.15 cm.
In the case of `O=C(Oc1cc(OC(=O)c2ccccc2O)c2c(=O)c(OC(=O)c3ccccc3O)c(-c3cc(OC(=O)c4ccccc4O)c(OC(=O)c4ccccc4O)c(OC(=O)c4ccccc4O)c3)oc2c1)c1ccccc1O`, the solubility [2] is reported as < 0.02 µg/mL and the Activity [3] is reported as “Active”.
In the case of `CC(=O)OC[C@H]1O[C@@H](O[C@H]2[C@H](OC(C)=O)[C@@H](OC(C)=O)[C@H](Oc3c(-c4cc(O)c(O)c(O)c4)oc4cc(O)cc(O)c4c3=O)O[C@@H]2COC(C)=O)[C@H](OC(C)=O)[C@@H](OC(C)=O)[C@H]1OC(C)=O`, the solubility at 24 h [2] is reported as 1390 µg/mL (≈ 1480 µM) and the Activity [3] is reported as “Active”.
In the case of `O=c1c(O[C@@H]2O[C@H](CO)[C@@H](O[C@@H]3O[C@H](CO)[C@H](O)[C@H](O)[C@H]3O)[C@H](O)[C@H]2O)c(-c2cc(O)c(O)c(O)c2)oc2cc([O-])cc(O)c12.[Na+]`, the Ratio [4] is reported as 10, the solubility at 24 h [2] is reported as > 100000 µg/mL and the k el at 3 h, 3 µM [5] is reported as 0.000167 s⁻¹. It also gave a half-life at 3 µM [6] of 2.42 h, a k el at 2 h, 1 µM [7] of 0.000167 s⁻¹ and a t1/2 [8] of 6.8098 h. The Activity [9] was 8.11 - 10.6 cm, the Activity [10] was “Active” and the inhibition [11] was “Active”. The LD50 [12] was > 5000 mg/kg, the remaining at 5 min, 3 µM [13] was 99.7% and the remaining at 10 min, 3 µM [14] was 88.9%. For the same compound, the remaining at 20 min, 3 µM [15] was 79.8%, the remaining at 40 min, 3 µM [16] was 82.4% and the remaining at 1 h, 3 µM [17] was 67.7%. For the same compound, the remaining at 1.5 h, 3 µM [18] was 67.8%, the remaining at 2 h, 3 µM [19] was 55% and the remaining at 3 h, 3 µM [20] was 58.4%. For the same compound, the remaining at 5 min, 1 µM [21] was 96.6%, the remaining at 10 min, 1 µM [22] was 89.7% and the remaining at 20 min, 1 µM [23] was 82.5%. It also gave a remaining at 0.5 h, 1 µM [24] of 87.2%, a remaining at 40 min, 1 µM [25] of 87.5% and a remaining at 1 h, 1 µM [26] of 83.5%. For the same compound, the remaining at 1.5 h, 1 µM [27] was 78.1%, the remaining at 2 h, 1 µM [28] was 76.1% and the Ratio [29] was 20. The Ratio [30] was > 7000.
Work on `O=c1c(O)c(-c2cc(O)c(O)c(O)c2)oc2cc(O)cc(O)c12` [MYRICETIN] yielded a solubility at 24 h [2] of 14 µg/mL (≈ 44 µM), a k el at 3 h, 3 µM [5] of 0.000833 s⁻¹ and a half-life at 3 µM [6] of 0.234 h. It also gave a k el at 2 h, 1 µM [7] of 0.0005 s⁻¹, a t1/2 [8] of 0.3397 h and an Activity [31] of 6.55 cm. It also gave a remaining at 5 min, 3 µM [13] of 98.1%, a remaining at 10 min, 3 µM [14] of 89.2% and a remaining at 20 min, 3 µM [15] of 62.1%. For the same compound, the remaining at 40 min, 3 µM [16] was 19%, the remaining at 1 h, 3 µM [17] was 5.81% and the remaining at 1.5 h, 3 µM [18] was 0.96%. It also gave a remaining at 2 h, 3 µM [19] of 1.23%, a remaining at 3 h, 3 µM [20] of 0.53% and a remaining at 5 min, 1 µM [21] of 81.3%. It also gave a remaining at 10 min, 1 µM [22] of 55.9%, a remaining at 20 min, 1 µM [23] of 31.6% and a remaining at 0.5 h, 1 µM [24] of 18.1%. The remaining at 40 min, 1 µM [25] was 8.01%, the remaining at 1 h, 1 µM [26] was 4.85% and the remaining at 1.5 h, 1 µM [27] was 3.32%. It also gave a remaining at 2 h, 1 µM [28] of 1.9%.
In the case of `O=C(Oc1c(-c2cc(O)c(O)c(O)c2)oc2cc(O)cc(OC(=O)c3ccccc3O)c2c1=O)c1ccccc1O`, the solubility [2] is reported as < 0.1 µg/mL and the Activity [3] is reported as “Active”.
For `CC(=O)OC[C@H]1O[C@@H](O[C@H]2[C@H](OC(C)=O)[C@@H](OC(C)=O)[C@H](Oc3c(-c4cc(OCc5ccccc5)c(OCc5ccccc5)c(OCc5ccccc5)c4)oc4cc(OCc5ccccc5)cc(O)c4c3=O)O[C@@H]2COC(C)=O)[C@H](OC(C)=O)[C@@H](OC(C)=O)[C@H]1OC(C)=O`, the solubility [2] was < 0.1 µg/mL and the Activity [3] was “Active”.
